Source: US8952024B2, “Herbicidal pyrimidone derivatives” (E I du Pont de Nemours and Company, priority 2009, dated 2015)

Legend:
Format in all cases: in vivo
rice (Oryza sativa) = assay: Test B flooded paddy test; conditions: for Plant response rating, Flood, Rice: 250 g ai/ha, flooded paddy test, visual rating on 0 to 100 scale (0 no effect, 100 complete control) after 13 to 15 days; for Plant response rating, Rice: Flood (flooded paddy test), 13 to 15 days; for Rice plant response rating: Flood, 31 g ai/ha, scale 0 to 100 (0 no effect, 100 complete control)
In short: (§1)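 Ratings are visual, 0–100 (100 = complete control), taken versus untreated controls 13 to 15 days after treatment in the greenhouse. Compound went straight into paddy water held 3 cm above soil, applied to 2-leaf-stage plants of four species.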

[1] = test system: umbrella sedge (Cyperus difformis); assay: Test B flooded paddy test; conditions: for Plant response rating, Flood, Sedge, Umbrella: 250 g ai/ha, flooded paddy test, visual rating on 0 to 100 scale (0 no effect, 100 complete control) after 13 to 15 days; for Plant response rating, Sedge, Umbrella: Flood (flooded paddy test), 13 to 15 days; for Sedge, Umbrella plant response rating: Flood, 31 g ai/ha, scale 0 to 100 (0 no effect, 100 complete control)
In short: as §1

[2] = test system: ducksalad (Heteranthera limosa); assay: Test B flooded paddy test; conditions: for Plant response rating, Flood, Ducksalad: 250 g ai/ha, flooded paddy test, visual rating on 0 to 100 scale (0 no effect, 100 complete control) after 13 to 15 days; for Plant response rating, Ducksalad: Flood (flooded paddy test), 13 to 15 days; for Ducksalad plant response rating: Flood, 31 g ai/ha, scale 0 to 100 (0 no effect, 100 complete control)
In short: as §1

[3] = test system: barnyardgrass (Echinochloa crus-galli); assay: Test B flooded paddy test; conditions: for Plant response rating, Flood, Barnyardgrass: 250 g ai/ha, flooded paddy test, visual rating on 0 to 100 scale (0 no effect, 100 complete control) after 13 to 15 days; for Plant response rating, Barnyardgrass: Flood (flooded paddy test), 13 to 15 days; for Barnyardgrass plant response rating: Flood, 31 g ai/ha, scale 0 to 100 (0 no effect, 100 complete control)
In short: as §1

[4] = test system: yellow nutsedge (Cyperus esculentus); assay: Test B pre-/postemergence plant response; conditions: Postemergence
In short: (§2)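 Visual ratings on a 0–100 scale (100 = complete control) were made versus untreated controls 13–15 days after treatment in a greenhouse. Compounds in surfactant-containing non-phytotoxic solvent were applied preemergence to seeds in loam–sand blend or postemergence to 1- to 4-leaf plants (2–18 cm).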

[5] = test system: downy bromegrass (Bromus tectorum); assay: Test B pre-/postemergence plant response; conditions: for Bromegrass, Downy plant response rating (0 to 100 scale): postemergence, 0 is no effect, 100 is complete control; for Plant response rating, Bromegrass, Downy: Postemergence
In short: as §2

[6] = test system: wheat (Triticum aestivum); assay: Test B pre-/postemergence plant response; conditions: Postemergence
In short: as §2

[7] = test system: bermudagrass (Cynodon dactylon); assay: Test B pre-/postemergence plant response; conditions: for Bermudagrass plant response rating (0 to 100 scale): postemergence, 0 is no effect, 100 is complete control; for Plant response rating, Bermudagrass: Postemergence
In short: as §2

[8] = test system: woolly cupgrass (Eriochloa villosa); assay: Test B pre-/postemergence plant response; conditions: Postemergence
In short: as §2

[9] = test system: lambsquarters (Chenopodium album); assay: Test B pre-/postemergence plant response; conditions: Postemergence
In short: as §2

[10] = test system: pigweed (Amaranthus retroflexus); assay: Test B pre-/postemergence plant response; conditions: Postemergence
In short: as §2

[11] = test system: Surinam grass (Brachiaria decumbens); assay: Test B pre-/postemergence plant response; conditions: Postemergence
In short: as §2

[12] = 62 g ai/ha, scale of 0 to 100 where 0 is no effect and 100 is complete control
[13] = 31 g ai/ha, 0 to 100 scale (0 no effect, 100 complete control)
[14] = 125 g ai/ha, scale 0 to 100 (0 no effect, 100 complete control)
[15] = 250 g ai/ha, scale 0 to 100 (0 no effect, 100 complete control), 13 to 15 days
[16] = 125 g ai/ha, scale 0 to 100, 0 is no effect, 100 is complete control
[17] = 62 g ai/ha, scale 0 to 100 (0 no effect, 100 complete control)

O=C1CCCC(O)=C1C(=O)c1cnc(-c2cccc(F)c2)n(C2CCCCC2)c1=O [Compound 187]
Plant response rating, Flood, Rice (rice (Oryza sativa)): 70
Plant response rating, Rice (rice (Oryza sativa); [12]): 15
Plant response rating, Flood, Sedge, Umbrella [1]: 100
Plant response rating, Sedge, Umbrella [1, 12]: 95
Plant response rating, Flood, Ducksalad [2]: 100
Plant response rating, Ducksalad [2, 12]: 95
Plant response rating, Flood, Barnyardgrass [3]: 80
Plant response rating, Barnyardgrass [3, 12]: 45
Plant response rating, Nutsedge, Yellow [4, 13]: 45
Plant response rating, Nutsedge, Yellow [4, 14]: 65
Plant response rating, Nutsedge, Yellow [4, 15]: 75
Bromegrass, Downy plant response rating (0 to 100 scale) ([5]; 62 g ai/ha, 13 to 15 days): 30
Plant response rating, Bromegrass, Downy [5, 13]: 5
Plant response rating, Bromegrass, Downy [5, 14]: 35
Plant response rating, Bromegrass, Downy [5, 15]: 40
Plant response rating, Wheat [6, 13]: 0
Plant response rating, Wheat [6, 14]: 5
Plant response rating, Wheat [6, 15]: 5
Bermudagrass plant response rating (0 to 100 scale) ([7]; 62 g ai/ha, 13 to 15 days): 85
Plant response rating, Bermudagrass [7, 13]: 75
Plant response rating, Bermudagrass [7, 14]: 100
Plant response rating, Bermudagrass [7, 15]: 100
Plant response rating, Cupgrass, Woolly [8, 13]: 80
Plant response rating, Cupgrass, Woolly [8, 14]: 85
Plant response rating, Cupgrass, Woolly [8, 15]: 95
Plant response rating, Lambsquarters [9, 13]: 98
Plant response rating, Lambsquarters [9, 14]: 100
Plant response rating, Lambsquarters [9, 15]: 100
Plant response rating, Pigweed [10, 13]: 100
Plant response rating, Pigweed [10, 14]: 100
Plant response rating, Pigweed [10, 15]: 100
Plant response rating, Surinam Grass [11, 13]: 65

O=C1CCCC(O)=C1C(=O)c1cnc(-c2cccs2)n(C2CCCCC2)c1=O [Compound 189]
Plant response rating, Flood, Rice (rice (Oryza sativa)): 60
Plant response rating, Rice (rice (Oryza sativa); [12]): 20
Plant response rating, Flood, Sedge, Umbrella [1]: 100
Plant response rating, Sedge, Umbrella [1, 12]: 95
Plant response rating, Flood, Ducksalad [2]: 100
Plant response rating, Ducksalad [2, 12]: 100
Plant response rating, Flood, Barnyardgrass [3]: 70
Plant response rating, Barnyardgrass [3, 12]: 30
Plant response rating, Nutsedge, Yellow [4, 13]: 20
Plant response rating, Nutsedge, Yellow [4, 14]: 55
Plant response rating, Nutsedge, Yellow [4, 15]: 65
Bromegrass, Downy plant response rating (0 to 100 scale) ([5]; 62 g ai/ha, 13 to 15 days): 5
Plant response rating, Bromegrass, Downy [5, 13]: 0
Plant response rating, Bromegrass, Downy [5, 14]: 5
Plant response rating, Bromegrass, Downy [5, 15]: 10
Plant response rating, Wheat [6, 13]: 0
Plant response rating, Wheat [6, 14]: 0
Plant response rating, Wheat [6, 15]: 0
Bermudagrass plant response rating (0 to 100 scale) ([7]; 62 g ai/ha, 13 to 15 days): 15
Plant response rating, Bermudagrass [7, 13]: 10
Plant response rating, Bermudagrass [7, 14]: 65
Plant response rating, Bermudagrass [7, 15]: 70
Plant response rating, Cupgrass, Woolly [8, 13]: 70
Plant response rating, Cupgrass, Woolly [8, 14]: 75
Plant response rating, Cupgrass, Woolly [8, 15]: 80
Plant response rating, Lambsquarters [9, 13]: 98
Plant response rating, Lambsquarters [9, 14]: 100
Plant response rating, Lambsquarters [9, 15]: 100
Plant response rating, Pigweed [10, 13]: 80
Plant response rating, Pigweed [10, 14]: 100
Plant response rating, Pigweed [10, 15]: 100
Plant response rating, Surinam Grass [11, 13]: 65
Plant response rating, Surinam Grass [11, 14]: 80
Plant response rating, Surinam Grass [11, 15]: 85

CCCn1c(-c2cccc(Cl)c2)ncc(C(=O)C2=C(O)CCCC2=O)c1=O [Compound 190]
Plant response rating, Flood, Rice (rice (Oryza sativa)): 15
Plant response rating, Rice (rice (Oryza sativa); [12]): 15
Plant response rating, Rice (rice (Oryza sativa); [16]): 15
Rice plant response rating (rice (Oryza sativa)): 15
Plant response rating, Flood, Sedge, Umbrella [1]: 95
Plant response rating, Sedge, Umbrella [1, 12]: 0
Plant response rating, Sedge, Umbrella [1, 16]: 30
Sedge, Umbrella plant response rating [1]: 0
Plant response rating, Flood, Ducksalad [2]: 100
Plant response rating, Ducksalad [2, 12]: 20
Plant response rating, Ducksalad [2, 16]: 40
Ducksalad plant response rating [2]: 20
Plant response rating, Flood, Barnyardgrass [3]: 30
Plant response rating, Barnyardgrass [3, 12]: 0
Plant response rating, Barnyardgrass [3, 16]: 20
Barnyardgrass plant response rating [3]: 0
Plant response rating, Nutsedge, Yellow [4, 13]: 35
Plant response rating, Nutsedge, Yellow [4, 14]: 65
Plant response rating, Nutsedge, Yellow [4, 15]: 75
Bromegrass, Downy plant response rating (0 to 100 scale) ([5]; 62 g ai/ha, 13 to 15 days): 30
Plant response rating, Bromegrass, Downy [5, 13]: 5
Plant response rating, Bromegrass, Downy [5, 14]: 35
Plant response rating, Bromegrass, Downy [5, 15]: 35
Plant response rating, Wheat [6, 13]: 0
Plant response rating, Wheat [6, 14]: 30
Plant response rating, Wheat [6, 15]: 30
Bermudagrass plant response rating (0 to 100 scale) ([7]; 62 g ai/ha, 13 to 15 days): 100
Plant response rating, Bermudagrass [7, 13]: 98
Plant response rating, Bermudagrass [7, 14]: 100
Plant response rating, Bermudagrass [7, 15]: 100
Plant response rating, Cupgrass, Woolly [8, 13]: 75
Plant response rating, Cupgrass, Woolly [8, 14]: 80
Plant response rating, Cupgrass, Woolly [8, 15]: 85
Plant response rating, Lambsquarters [9, 13]: 80
Plant response rating, Lambsquarters [9, 14]: 100
Plant response rating, Lambsquarters [9, 15]: 100
Plant response rating, Pigweed [10, 13]: 65
Plant response rating, Pigweed [10, 14]: 100
Plant response rating, Pigweed [10, 15]: 100
Plant response rating, Surinam Grass [11, 13]: 60
Plant response rating, Surinam Grass [11, 14]: 75
Plant response rating, Surinam Grass [11, 15]: 90

Cc1cc(-n2c(-c3cccc(F)c3)ncc(C(=O)C3=C(O)CCCC3=O)c2=O)ccc1F [Compound 191]
Plant response rating, Flood, Rice (rice (Oryza sativa)): 0
Plant response rating, Rice (rice (Oryza sativa); [12]): 0
Plant response rating, Rice (rice (Oryza sativa); [16]): 0
Rice plant response rating (rice (Oryza sativa)): 0
Plant response rating, Flood, Sedge, Umbrella [1]: 85
Plant response rating, Sedge, Umbrella [1, 12]: 75
Plant response rating, Sedge, Umbrella [1, 16]: 80
Sedge, Umbrella plant response rating [1]: 60
Plant response rating, Flood, Ducksalad [2]: 100
Plant response rating, Ducksalad [2, 12]: 85
Plant response rating, Ducksalad [2, 16]: 75
Ducksalad plant response rating [2]: 65
Plant response rating, Flood, Barnyardgrass [3]: 25
Plant response rating, Barnyardgrass [3, 12]: 0
Plant response rating, Barnyardgrass [3, 16]: 0
Barnyardgrass plant response rating [3]: 0
Plant response rating, Nutsedge, Yellow [4, 13]: 40
Plant response rating, Nutsedge, Yellow [4, 17]: 40
Plant response rating, Nutsedge, Yellow [4, 14]: 55
Plant response rating, Nutsedge, Yellow [4, 15]: 70
Plant response rating, Bromegrass, Downy [5, 13]: 35
Plant response rating, Bromegrass, Downy [5, 17]: 40
Plant response rating, Bromegrass, Downy [5, 14]: 50
Plant response rating, Bromegrass, Downy [5, 15]: 75
Plant response rating, Wheat [6, 13]: 35
Plant response rating, Wheat [6, 17]: 40
Plant response rating, Wheat [6, 14]: 55
Plant response rating, Wheat [6, 15]: 65
Plant response rating, Bermudagrass [7, 13]: 100
Plant response rating, Bermudagrass [7, 17]: 100
Plant response rating, Bermudagrass [7, 14]: 100
Plant response rating, Bermudagrass [7, 15]: 100
Plant response rating, Cupgrass, Woolly [8, 13]: 85
Plant response rating, Cupgrass, Woolly [8, 17]: 90
Plant response rating, Cupgrass, Woolly [8, 14]: 90
Plant response rating, Cupgrass, Woolly [8, 15]: 98
Plant response rating, Lambsquarters [9, 13]: 75
Plant response rating, Lambsquarters [9, 17]: 80
Plant response rating, Lambsquarters [9, 14]: 98
Plant response rating, Lambsquarters [9, 15]: 100
Plant response rating, Pigweed [10, 13]: 80
Plant response rating, Pigweed [10, 17]: 85
Plant response rating, Pigweed [10, 14]: 98
Plant response rating, Pigweed [10, 15]: 100
Plant response rating, Surinam Grass [11, 13]: 70
Plant response rating, Surinam Grass [11, 17]: 85
Plant response rating, Surinam Grass [11, 14]: 90
Plant response rating, Surinam Grass [11, 15]: 98
